From PubChem BioAssay AID330 (DTP/NCI, 2004)
“And” between values parts separate entries of the source, which are not always exact repeats. Equal values may be shown once. Inconclusive results and toxic doses are left out. The calls were made as follows: active = survival T/C of 150% or more; inactive = T/C below 125% in these data.

System: P388 leukemia ip, CD2F1 mice, survival T/C
Assay: NCI In Vivo Anticancer Drug Screen. Data for tumor model P388 Leukemia (intraperitoneal) in CD2F1 (CDF1) mice
Details: endpoint: median survival time, higher = longer survival
How it was run: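 Mice carrying the transplanted tumor received test compound or vehicle. Survival was recorded in each group, and the value is the treated-group measurement divided by that of the vehicle-treated control group.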

[1] = dose: 60.0 mg/kg/injection, schedule: Q01DX005 (ip), vehicle: Klucel (hydroxypropylcellulose) (HPC)
[2] = dose: 120.0 mg/kg/injection, schedule: Q01DX005 (ip), vehicle: Klucel (hydroxypropylcellulose) (HPC)
[3] = dose: 50.0 mg/kg/injection, schedule: Q01DX005 (ip), vehicle: saline
[4] = dose: 100.0 mg/kg/injection, schedule: Q01DX005 (ip), vehicle: saline
[5] = dose: 12.5 mg/kg/injection, schedule: Q01DX009 (ip), vehicle: saline
[6] = dose: 25.0 mg/kg/injection, schedule: Q01DX009 (ip), vehicle: saline
[7] = dose: 50.0 mg/kg/injection, schedule: Q01DX009 (ip), vehicle: saline
[8] = dose: 50.0 mg/kg/injection, schedule: Q01DX005 (ip), vehicle: Klucel (hydroxypropylcellulose) (HPC)
[9] = dose: 100.0 mg/kg/injection, schedule: Q01DX005 (ip), vehicle: Klucel (hydroxypropylcellulose) (HPC)
[10] = dose: 200.0 mg/kg/injection, schedule: Q01DX005 (ip), vehicle: Klucel (hydroxypropylcellulose) (HPC)

Measured: T/C

CC1OC(=Nc2ccccc2)NC1=O (stereo unspecified)
inactive: dose: 100.0 mg/kg/injection, schedule: Q01DX001 (ip), vehicle: saline with Tween-80 97 % of control | dose: 200.0 mg/kg/injection, schedule: Q01DX001 (ip), vehicle: saline with Tween-80 89 % of control

CN1C(=O)C2C3C=CC(C2C1=O)C1C2C(=O)N(C)C(=O)C2C31 (stereo unspecified)
inactive: dose: 25.0 mg/kg/injection, schedule: Q01DX009 (ip), vehicle: Klucel (hydroxypropylcellulose) (HPC) 100 % of control | dose: 50.0 mg/kg/injection, schedule: Q01DX009 (ip), vehicle: Klucel (hydroxypropylcellulose) (HPC) 108 % of control | dose: 100.0 mg/kg/injection, schedule: Q01DX009 (ip), vehicle: Klucel (hydroxypropylcellulose) (HPC) 111 % of control | dose: 200.0 mg/kg/injection, schedule: Q01DX009 (ip), vehicle: Klucel (hydroxypropylcellulose) (HPC) 104 % of control and 111 % of control

c1ccc2c(SCCSc3c4ccccc4nc4ccccc34)c3ccccc3nc2c1
inactive: [1] 90 % of control | [2] 96 % of control

C[Si]c1ccccc1CN(C)C
inactive: [3] 106 % of control | [4] 102 % of control

CCCCNC(C)(C)C(SSSC(c1ccco1)C(C)(C)NCCCC)c1ccco1 (stereo unspecified)
inactive: [5] 109 % of control | [6] 113 % of control | [7] 113 % of control | dose: 66.0 mg/kg/injection, schedule: Q04DX003 (ip), vehicle: saline 100 % of control | dose: 100.0 mg/kg/injection, schedule: Q04DX003 (ip), vehicle: saline 118 % of control | dose: 150.0 mg/kg/injection, schedule: Q04DX003 (ip), vehicle: saline 109 % of control

O=C(OC1CCc2ccccc2C1)c1ccc(N=Nc2ccccc2)cc1 (stereo unspecified)
inactive: dose: 15.0 mg/kg/injection, schedule: Q01DX005 (ip), vehicle: saline with Tween-80 100 % of control | dose: 30.0 mg/kg/injection, schedule: Q01DX005 (ip), vehicle: saline with Tween-80 97 % of control | dose: 60.0 mg/kg/injection, schedule: Q01DX005 (ip), vehicle: saline with Tween-80 91 % of control | dose: 120.0 mg/kg/injection, schedule: Q01DX005 (ip), vehicle: saline with Tween-80 86 % of control

CC(C)c1ccccc1Oc1ccccc1N=C1CCN(C)C1
inactive: [5] 100 % of control | [6] 107 % of control | [7] 100 % of control and 95 % of control

Fc1cccc(Cl)c1C(Nc1nc2ccccc2s1)Nc1nc2ccccc2s1
inactive: [1] 98 % of control | [2] 101 % of control | dose: 240.0 mg/kg/injection, schedule: Q01DX005 (ip), vehicle: Klucel (hydroxypropylcellulose) (HPC) 95 % of control

NNC(=O)c1ccc(OCc2nc3ccccc3[nH]2)cc1
inactive: dose: 3.12 mg/kg/injection, schedule: Q01DX005 (ip), vehicle: saline with Tween-80 100 % of control | dose: 6.25 mg/kg/injection, schedule: Q01DX005 (ip), vehicle: saline with Tween-80 100 % of control | dose: 12.5 mg/kg/injection, schedule: Q01DX005 (ip), vehicle: saline with Tween-80 98 % of control | dose: 25.0 mg/kg/injection, schedule: Q01DX005 (ip), vehicle: saline with Tween-80 94 % of control

Cc1ccc(S(=O)(=O)ON=C2CC(c3ccccc3)N(C)C(c3ccccc3)C2)cc1 (stereo unspecified)
inactive: [8] 116 % of control and 101 % of control | [9] 107 % of control and 104 % of control | [10] 100 % of control

CN1C(=O)CCC1(O)C1SCCCS1 (stereo unspecified)
inactive: [3] 102 % of control | [4] 100 % of control | dose: 200.0 mg/kg/injection, schedule: Q01DX005 (ip), vehicle: saline 102 % of control

COc1ccc(C(C)=O)cc1CN1CCN(Cc2cc(C(C)=O)ccc2OC)CC1
inactive: [8] 104 % of control | [9] 105 % of control | [10] 99 % of control

c1cc(-n2nnc3cnccc32)ccn1
inactive: dose: 3.12 mg/kg/injection, schedule: Q01DX009 (ip), vehicle: saline 91 % of control | dose: 6.25 mg/kg/injection, schedule: Q01DX009 (ip), vehicle: saline 100 % of control | dose: 6.25 mg/kg/injection, schedule: Q04DX003 (ip), vehicle: saline 109 % of control | [5] 98 % of control | dose: 12.5 mg/kg/injection, schedule: Q04DX003 (ip), vehicle: saline 104 % of control | dose: 25.0 mg/kg/injection, schedule: Q01DX009 (ip), vehicle: suspension in saline 109 % of control | dose: 25.0 mg/kg/injection, schedule: Q04DX003 (ip), vehicle: saline 100 % of control
